From US12265087B2, “Olfactory receptor as microglia marker and use thereof” (DAEGU GYEONGBUK INSTITUTE OF SCIENCE AND TECHNOLOGY, priority 2019, dated 2025)
Where a chain is given by its changes, count along the chain named. “Also recorded” adds a separate entry of the source.

Tests used:
[1] = system: Hana3A cells expressing Olfr111; experiment: Boyden chamber chemotaxis assay, Hana3A cells expressing Olfr111; type: cell-based; details: 2-PF 10, 100 and 1000 μM
Experimental: Chemotaxis was measured using a multi-well Boyden chamber. More specifically, a polycarbonate filter (8 μm pore; #101-8; Neuroprobe) was coated with […] fibronectin (Sigma-Aldrich) in PBS for 2 hours, and the coated filter was installed in a Boyden chamber. In addition, the bottom side of a plate was filled with serum-free DMEM containing 2-PF or a culture supernatant. Subsequently, microglia or Hana3A cells were transfected with an OR construct, and then suspended in serum-free DMEM. The microglia were kept at 37° C. for 4 hours, and the Hana3A cells for 8 hours. Cells that migrated to the bottom surface were fixed with 4% PFA, and stained with hematoxylin for 10 minutes. The migrated cells were counted under a light microscope in five randomly selected fixed […] fields (200×) using a scored eyepiece. A chemotaxis index was defined as the migrated cell number normalized against the untreated group.

Olfr110 F104W mutation = biological target: T1, Olfr110 F104W mutation (Mus musculus, UniProt A2RT31, F104W); experiment: Luciferase assay with site-directed Olfr110 mutants; type: cell-based; details: 2-PF treatment
T1 construct: Full-length odorant receptor genes from mouse and human genomic DNAs were amplified using appropriate primers; Lucy (N); Flag (N); Rho (N); expressed in transfected cells; host or cells: Hana3A cells
T1 sequence (A2RT31 1-317 F104W): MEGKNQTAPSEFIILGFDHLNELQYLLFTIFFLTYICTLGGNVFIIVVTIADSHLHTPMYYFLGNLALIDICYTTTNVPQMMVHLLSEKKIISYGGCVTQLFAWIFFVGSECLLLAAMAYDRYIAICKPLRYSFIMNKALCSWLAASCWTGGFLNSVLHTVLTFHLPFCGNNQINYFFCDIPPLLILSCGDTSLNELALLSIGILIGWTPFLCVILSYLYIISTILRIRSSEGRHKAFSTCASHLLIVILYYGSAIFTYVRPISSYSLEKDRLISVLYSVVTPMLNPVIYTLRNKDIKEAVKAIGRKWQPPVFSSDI
Description: Specific mutant vectors of the Olfr110 structure were generated using PfuUltra High-Fidelity DNA polymerase (#600380; Agilent Technologies). All mutant vectors (F102W; F104W; Y252F; Y259F; F102W/F104W; Y252F/Y259F; F102W/Y252F/Y259F; F104W/Y252F/Y259F; F102W/F104W/Y252F/Y259F) were sequenced in forward and reverse directions (Macrogen).

primary microglia [2] = experiment: ROS / superoxide generation in primary microglia; type: cell-based, mouse
Experimental: Superoxide concentrations were calculated by measuring the degree ofcytochrome c reduction using a VersaMax microplate reader (Babior et al., 1973). Microglia were cultured in a 96 well plate at a concentration of 1.0×10^5 cells/well, and the microglia were activated by a 10 μM ATP solution containing 2-PF and cytochrome c, or a solution in which Sup is mixed with cytochalasin B (5 μM; #C66762; Sigma Aldrich). The concentration of ROS was measured through a change in light absorption every minute for 25 minutes at 550 nm.
ROS levels were measured using 2′,7′-dichlorodihydrofluorescein diacetate (DCF-DA, #D6883; Sigma Aldrich) by a previously described method with minor modifications (Bae et al., 2001). More specifically, primary microglia were seeded in 24-well plates (5.0×10^5 cells/well) for 24 hours, and then treated with 10 μM DCF-DA at 37° C. for 30 minutes. One plate was treated with 2-PF, and the other one was not. The cells in each well were measured using a flow cytometer (FACS Accuri™ C6; BD Biosciences). MFI was measured as described above.

primary microglia [3] = experiment: Phagocytosis of FITC-dextran by primary microglia (FACS); type: cell-based, mouse; details: 100, 300 and 500 μM
Experimental: Primary microglia were seeded in 24-well plates (5×10^5 cells/well) and incubated for 24 hours. Cells were preincubated with 2-PF or Sup for 30 minutes, incubated with FITC-dextran (1 mg/ml, 20 mg/ml in PBS; #FD70S; Sigma Aldrich) in serum-free DMEM at 37° C. for […], and washed with PBS at 4° C. The cells were detached with 0.25% trypsin (#15090-046; Thermo Fisher Scientific) in PBS, and the detached cells were analyzed with FACS Accuri™ C6 (BD Biosciences). Mean fluorescence intensity (MFI) was calculated by integrating fluorescence histograms under each condition using the software. A phagocytosis index was defined as MFI, normalized against an untreated group.

microglia = experiment: GFP intensity / morphology of microglia in CX3CR1 GFP/+ mice; type: in vivo, mouse; details: 2-PF treated CX3CR1 GFP/+ mice
Experimental: To analyze a morphological change in microglia activation, 9-week-old CX3CR1^GFP/+ mice were used. Two hours after an IP containing or not containing 2-PF was injected into two mice, brain sections were collected by cryosection. A 40-μm-thick brain tissue fragment was prepared by […], and a GFP signal of microglia was measured using a 40× magnification confocal microscope. A GFP-pixel signal of microglia was analyzed using Zeiss ZEN Software (Zeiss).

Olfr110 = biological target: T2, Olfr110 (Mus musculus, UniProt A2RT31); experiment: Luciferase assay in Hana3A cells transfected with Olfr110; type: cell-based
T2 construct: Full-length odorant receptor genes from mouse and human genomic DNAs were amplified using appropriate primers; Lucy (N); Flag (N); Rho (N); expressed in transfected cells; host or cells: Hana3A cells, co-transfected with RTP1S, pCRELuc and pRL-SV40
T2 sequence (A2RT31 1-317): T1 sequence (A2RT31 1-317 F104W) with W104F
Experimental: A Dual-Glo luciferase assay system (#E2940; Promega) was used for OR ligand screening. More specifically, Hana3A cells were seeded in white polystyrene 96-well plates (#353296; BD Biosciences) one day before transfection. pCRELuc (1 μg; #219076; Agilent Technologies), pRL-SV40 (1 μg; #E2231; Promega), RTP1S (1 μg), and OR (6 μg; or Mock) vectors were transfected for 24 hours in each plate. Analysis was performed using Lipofectamine 2000 (#11668-019; Thermo Fisher Scientific) according to the manufacturer's protocols. Transfected cells were stimulated at 37° C. for 4 hours with various concentrations of diluted odorants in a CD293 medium (#11913-019; Thermo Fisher Scientific). The activity of luciferase was normalized to that of Renilla luciferase. Luminescence was measured using a SpectraMax L microplate reader (Molecular Devices).

luciferase activity of Olfr110 F104W mutant (Olfr110 F104W mutation): completely lost
mode of action at Olfr110 (Olfr110): agonist
Compound: CCCCCc1ccco1 [2-PF, 2-pentylfuran]
mobility of Olfr111 cells (chemotaxis assay) [1]: increased in mobility in a concentration-dependent manner
ROS generation on top of Sup MOI 5 (primary microglia [2]; 500 μM 2-PF with Sup MOI 5): further increased
ROS secretion (primary microglia [2]; 100, 300 and 500 μM): significantly increased in a concentration-dependent manner
phagocytosis (primary microglia [3]): significantly increased in a concentration-dependent manner
intensity of GFP expression of microglia (microglia): highly increased
reactivity with Olfr110 (relative luciferase activity) (Olfr110; Hana3A cells): selective ligands; also recorded: showed the highest reactivity with Olfr110
